Measurements as given in US8765972B2 (priority 2009, dated 2014).
Like-named read-outs stand apart in the source and are kept apart here.

Legend:
[1] = test system: Capan-1 human pancreatic cancer tumors; assay: In vivo efficacy, Capan-1 BRCA-2 mutated mouse model, single agent; parameters: species or system Balb, athymic Nu/Nu male mice; conditions: oral
Description: (§1) Balb, athymic Nu/Nu male mice, from Harlan (Italy), were maintained in agreement with the European Communities Council Directive no. 86/609/EEC concerning the protection of animals used for experimental or other scientific purposes, in cages with paper filter cover, food and bedding sterilized and acidified water. Fragments of Capan-1 human pancreatic cancer tumors were implanted subcutaneously. […] Each group included seven animals. The treatment started one day after randomization. Compound of formula (I) was administered by oral route as a methocel suspension at the indicated doses and times. Tumor dimension was measured regularly by calipers during the experiments and tumor mass was calculated as described in Simeoni M. et al., Cancer Res 64, 1094-1101 (2004).

PARP-1 [2] = molecular target: T1, PARP-1 (Homo sapiens (Human), UniProt P09874); conditions: for DC50: read-out: PARP-1 (DC50); for Kd: read-out: PARP-1 (Kd)
T1 sequence (P09874 whole entry): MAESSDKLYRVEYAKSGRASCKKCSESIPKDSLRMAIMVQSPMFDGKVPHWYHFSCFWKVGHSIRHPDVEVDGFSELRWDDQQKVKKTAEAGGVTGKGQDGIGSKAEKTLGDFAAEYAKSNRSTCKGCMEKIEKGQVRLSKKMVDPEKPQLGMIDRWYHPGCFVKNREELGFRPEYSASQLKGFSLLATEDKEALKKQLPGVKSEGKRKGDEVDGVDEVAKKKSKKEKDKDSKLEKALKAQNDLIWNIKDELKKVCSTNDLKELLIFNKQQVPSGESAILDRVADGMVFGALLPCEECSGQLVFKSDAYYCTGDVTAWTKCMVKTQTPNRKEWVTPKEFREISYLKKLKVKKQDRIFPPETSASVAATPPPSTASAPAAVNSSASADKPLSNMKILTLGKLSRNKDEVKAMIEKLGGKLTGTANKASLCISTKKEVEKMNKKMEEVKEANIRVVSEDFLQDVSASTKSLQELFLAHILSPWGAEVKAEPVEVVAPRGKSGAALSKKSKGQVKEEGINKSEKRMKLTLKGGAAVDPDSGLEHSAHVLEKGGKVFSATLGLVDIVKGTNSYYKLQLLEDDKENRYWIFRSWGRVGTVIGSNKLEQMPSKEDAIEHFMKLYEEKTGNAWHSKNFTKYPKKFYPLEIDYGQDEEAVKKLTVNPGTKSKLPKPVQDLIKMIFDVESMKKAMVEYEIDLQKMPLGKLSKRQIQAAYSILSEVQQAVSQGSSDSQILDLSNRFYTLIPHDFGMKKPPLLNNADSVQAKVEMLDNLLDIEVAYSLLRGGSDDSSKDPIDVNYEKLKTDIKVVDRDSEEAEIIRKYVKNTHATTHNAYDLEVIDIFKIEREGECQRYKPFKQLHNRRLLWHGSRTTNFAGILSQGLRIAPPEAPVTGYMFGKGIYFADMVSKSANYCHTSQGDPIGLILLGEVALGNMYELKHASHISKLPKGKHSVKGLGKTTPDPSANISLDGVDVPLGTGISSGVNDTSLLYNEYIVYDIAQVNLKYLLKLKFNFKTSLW
Protocol: (§2) Affinity evaluation of the tested compounds and their selectivity with respect to the different PARP isoforms of interest was assessed in a displacement assay.
(§3) The polarization signal can be measured, e.g., by a plate reader such as the Saphire2 (Tecan). The displacement ability of the test compound is in correlation with the compound affinity for the NAD pocket of the enzyme.
(§4) In all of the experiments, the polarization signal was measured using a Saphire2 plate reader (Tecan). Data analysis was performed using Dynafit software. In particular, titration data were fitted to the following equilibria: Enzyme+probe<==>Complex Enzyme-probe, while displacement data were fitted to the following equilibria: Enzyme+probe<==>Complex Enzyme-probe, Enzyme+Compound<==>Complex Enzyme-Compound, whereby binding of probe and compound on the enzyme are mutually exclusive (pure competitive mechanism). Displacement data were also fitted using Excell spreadsheet (Microsoft Inc. Seattle, USA) to a four parameter logistic model (4PL), or Hill-Slope model to calculate DC50s where the DC50 value represents the compound concentration at which the polarization signal is diminished by 50% compared to untreated controls.
(§5) In agreement, affinity binding constants (KD) were determined by fitting with a pure competitive mechanism. KD values, are the average of three independent experiments.

PARP-2 = PARP-2 (Homo sapiens (Human), UniProt Q9UGN5); conditions: read-out: PARP-2 (DC50); probe compound P1
Chain of PARP-2 (Q9UGN5 whole entry): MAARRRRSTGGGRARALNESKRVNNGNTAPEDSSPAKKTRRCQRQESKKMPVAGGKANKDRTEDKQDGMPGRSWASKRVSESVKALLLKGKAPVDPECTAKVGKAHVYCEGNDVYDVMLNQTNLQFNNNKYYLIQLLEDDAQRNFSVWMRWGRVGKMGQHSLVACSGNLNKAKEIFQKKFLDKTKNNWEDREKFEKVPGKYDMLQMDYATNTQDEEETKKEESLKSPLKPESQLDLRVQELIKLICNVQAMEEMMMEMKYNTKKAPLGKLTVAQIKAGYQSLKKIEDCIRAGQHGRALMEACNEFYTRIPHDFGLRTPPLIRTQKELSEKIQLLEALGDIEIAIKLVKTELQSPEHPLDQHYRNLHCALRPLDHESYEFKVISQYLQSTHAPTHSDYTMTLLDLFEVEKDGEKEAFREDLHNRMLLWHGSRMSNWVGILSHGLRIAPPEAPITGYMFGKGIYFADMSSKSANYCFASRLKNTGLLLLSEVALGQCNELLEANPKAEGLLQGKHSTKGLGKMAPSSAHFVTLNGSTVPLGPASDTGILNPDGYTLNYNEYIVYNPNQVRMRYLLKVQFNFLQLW
Protocol: as §2, §3, §4, §5

PARP-3 = PARP-3 (Homo sapiens (Human), UniProt Q9Y6F1); conditions: read-out: PARP-3 (DC50); probe compound P1
Chain of PARP-3 (Q9Y6F1 whole entry): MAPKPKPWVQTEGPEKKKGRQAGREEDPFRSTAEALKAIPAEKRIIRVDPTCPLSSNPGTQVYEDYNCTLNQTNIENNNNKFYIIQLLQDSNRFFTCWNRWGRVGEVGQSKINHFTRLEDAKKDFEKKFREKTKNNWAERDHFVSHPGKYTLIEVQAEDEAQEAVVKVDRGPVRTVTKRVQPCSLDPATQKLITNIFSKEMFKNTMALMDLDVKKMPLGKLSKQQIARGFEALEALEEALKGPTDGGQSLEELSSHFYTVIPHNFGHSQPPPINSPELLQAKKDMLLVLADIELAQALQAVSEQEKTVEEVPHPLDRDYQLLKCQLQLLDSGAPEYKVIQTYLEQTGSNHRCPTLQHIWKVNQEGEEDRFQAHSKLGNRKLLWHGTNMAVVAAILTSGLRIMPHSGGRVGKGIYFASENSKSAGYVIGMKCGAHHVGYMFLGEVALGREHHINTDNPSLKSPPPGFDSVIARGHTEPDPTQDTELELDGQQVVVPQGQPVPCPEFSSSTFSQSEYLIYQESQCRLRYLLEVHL
Protocol: as §2, §3, §4, §5

[3] = male, Balb, Nu/Nu, mouse, in vivo, 10 mg/kg
Protocol: (§6) The compounds were formulated in 10% tween 80/dextrose for intravenous bolus administration while oral administrations were performed using the compounds formulated in 0.5% methylcellulose. […] Plasma samples were prepared by plasma proteins precipitation adding 200 μL of methanol to 10 μL of plasma in a 96 well plate. […] The supernatant was considered as final extract and injected onto the LC-MS-MS system (HPLC system: Hewlett Packard 1100 series using Atlantis HILIC Silica 50*2.1 mm 5.0 μm analytical column; MS instrument: Perkin Elmer SCIEX API 2000 and ionization performed with Turbo Ion Spray in positive ion mode). Lower limit of quantification is 5.0 ng/mL, upper limit of quantification is 10000 ng/mL. Analysis was performed using the Watson package (version 6.4.0.04) and Excel spreadsheet (Microsoft Inc. Seattle, USA). Non-compartmental method (linear trapezoidal rule and linear regression analysis of natural log-transformed plasma concentrations vs. time data) was used. After intravenous dosing, Co was set equal to Co 083 Absolute bioavailability (F) was calculated from the ratio of average oral to IV (intravenous) dose-normalized plasma AUC (area under curve) values.

[4] = male, Balb, athymic Nu/Nu, mouse, in vivo, po
Description: as §1

[5] = test system: PAR formation in HeLa cells; assay: cells; conditions: Homo sapiens, read-out: PAR assay (IC50)
Protocol: Cellular PAR levels were measured by immunocytochemistry, and quantified using an ArrayScan vTi instrument (Cellomics Thermo Scientific). […] Test compounds were then added at the required concentration for 30'. […] After 3 washes in PBS, wells incubated in PBS (w/v) 5% FBS 0.05% Tween20 containing 2 μg/mL Cy2-conjugated Goat anti mouse secondary antibody (Amersham Pharmacia Biotech cat. […] At least 10 fields, corresponding to at least 900 cells, were read for each well. […] X is the logarithm of concentration. IC50 is the response; IC50 starts at Bottom and goes to Top with a sigmoid shape.

in vivo = conditions: male, Balb, Nu/Nu, mouse, 10 mg/kg; for Vd / clearance: iv; for AUC(0-t) / half-life: po
Protocol: as §6

PARP-1 [6] = molecular target: T1, PARP-1; assay: biochemical; conditions: PARP-1 (Kd)
Protocol: as §2, §3, §4, §5

[7] = test system: ovarian cancer patients with confirmed BRCA-1 mutations; conditions: phase I, monotherapy, preliminary data; cited from earlier work

CC1c2cccc(C(N)=O)c2C(=O)N1C1CCN(C2CCCCC2)CC1 (racemic) [Compound 3, 2-(1-Cyclohexylpiperidin-4-yl)-1-methyl-3-oxo-2,3-dihydro-1H-isoindole-4-carboxamide]
Max TGI (%) ([1]; 100 mg/kg, schedule 1-10 daily): 51% | DC50 (PARP-1 [2]): < 0.25 µM | DC50 (PARP-2): > 10 µM | DC50 (PARP-3): > 10 µM | C-max (oral) [3]: 2.53 µM | Toxicity (body weight reduction, mice affected out of 7 treated) ([4]; 100 mg/kg): 0/7 | IC50 [5]: 0.28 µM | Vd (in vivo): 3.61 L/kg | clearance (in vivo): 32.6 mL/min/kg | AUC(0-t) (in vivo): 13.5 µM·h | half-life (in vivo): 3.04 h | Kd (PARP-1 [6]): < 0.01 µM

O=C(c1cc(Cc2n[nH]c(=O)c3ccccc23)ccc1F)N1CCN(C(=O)C2CC2)CC1 [AZD2281]
partial responses [7]: 4 out of 10

C[C@H]1c2cccc(C(N)=O)c2C(=O)N1C1CCN(C2CCCCC2)CC1 [Compound 4, (1S)-2-(1-Cyclohexylpiperidin-4-yl)-1-methyl-3-oxo-2,3-dihydro-1H-isoindole-4-carboxamide]
Max TGI (%) ([1]; 75 mg/kg, schedule 1-10 daily): 52% | DC50 (PARP-1 [2]): < 0.25 µM | DC50 (PARP-2): > 10 µM | DC50 (PARP-3): > 10 µM | C-max (oral) [3]: 1.37 µM | Toxicity (body weight reduction, mice affected out of 7 treated) ([4]; 75 mg/kg): 0/7 | IC50 [5]: 0.15 µM | Vd (in vivo): 6.8 L/kg | clearance (in vivo): 53.4 mL/min/kg | AUC(0-t) (in vivo): 4.93 µM·h | half-life (in vivo): 2.62 h | Kd (PARP-1 [6]): < 0.01 µM

C[C@@H]1c2cccc(C(N)=O)c2C(=O)N1C1CCN(C2CCCCC2)CC1 [Compound 5, (1R)-2-(1-Cyclohexylpiperidin-4-yl)-1-methyl-3-oxo-2,3-dihydro-1H-isoindole-4-carboxamide]
DC50 (PARP-1 [2]): 2.11 µM | Kd (PARP-1 [2]): 0.78 µM | DC50 (PARP-2): > 10 µM | DC50 (PARP-3): > 10 µM | IC50 [5]: 6.3 µM

CC1c2cccc(C(N)=O)c2C(=O)N1C1CCN(C2CCC(F)(F)CC2)CC1 (stereo not drawn) [Compound 6, 2-[1-(4,4-Difluorocyclohexyl)piperidin-4-yl]-1-methyl-3-oxo-2,3-dihydro-1H-isoindole-4-carboxamide]
DC50 (PARP-1 [2]; probe compound P1): < 0.25 µM | Kd (PARP-1 [2]; probe compound P3): 0.03 µM | DC50 (PARP-2): > 10 µM | DC50 (PARP-3): > 10 µM | IC50 [5]: 1.3 µM

CC1c2cccc(C(N)=O)c2C(=O)N1C1CCN(Cc2ccc3[nH]ccc3c2)CC1 (stereo not drawn) [Compound 7, 2-[1-(1H-indol-5-ylmethyl)piperidin-4-yl]-1-methyl-3-oxo-2,3-dihydro-1H-isoindole-4-carboxamide]
DC50 (PARP-1 [2]; probe compound P1): < 0.25 µM | Kd (PARP-1 [2]; probe compound P3): 0.03 µM | DC50 (PARP-2): > 10 µM | DC50 (PARP-3): 0.52 µM | IC50 [5]: 7 µM

CC1c2cccc(C(N)=O)c2C(=O)N1C1CCN(Cc2cn(C(C)C)c3ccccc23)CC1 (stereo not drawn) [Compound 8, 1-Methyl-3-oxo-2-(1-{[1-(propan-2-yl)-1H-indol-3-yl]methyl}piperidin-4-yl)-2,3-dihydro-1H-isoindole-4-carboxamide]
DC50 (PARP-1 [2]; probe compound P1): 0.44 µM | Kd (PARP-1 [2]; probe compound P3): 0.25 µM | DC50 (PARP-2): > 10 µM | DC50 (PARP-3): 3.1 µM

CC1c2cccc(C(N)=O)c2C(=O)N1C1CCN(Cc2ccccn2)CC1 (stereo not drawn) [Compound 9, 1-Methyl-3-oxo-2-[1-(pyridin-2-ylmethyl)piperidin-4-yl]-2,3-dihydro-1H-isoindole-4-carboxamide]
DC50 (PARP-1 [2]; probe compound P1): 0.35 µM | Kd (PARP-1 [2]; probe compound P3): 0.17 µM | DC50 (PARP-2): > 10 µM | DC50 (PARP-3): > 10 µM | IC50 [5]: 3 µM

CC1c2cccc(C(N)=O)c2C(=O)N1C1CCN(C2CCCC2)CC1 (stereo not drawn) [Compound 13, 2-(1-Cyclopentylpiperidin-4-yl)-1-methyl-3-oxo-2,3-dihydro-1H-isoindole-4-carboxamide]
Max TGI (%) ([1]; 100 mg/kg, schedule 1-20 daily): 18% | DC50 (PARP-1 [2]; probe compound P1): < 0.25 µM | Kd (PARP-1 [2]; probe compound P3): 0.05 µM | DC50 (PARP-2): 1.46 µM | DC50 (PARP-3): > 10 µM | C-max (oral) [3]: 3.64 µM | Toxicity (body weight reduction, mice affected out of 7 treated) ([4]; 100 mg/kg): 0/7 | IC50 [5]: 0.5 µM | Vd (in vivo): 4.7 L/kg | clearance (in vivo): 26.7 mL/min/kg | AUC(0-t) (in vivo): 18.3 µM·h | half-life (in vivo): 2.9 h

CC1c2cccc(C(N)=O)c2C(=O)N1C1CCN(Cc2ccco2)CC1 (stereo not drawn) [Compound 15, 2-[1-(Furan-2-ylmethyl)piperidin-4-yl]-1-methyl-3-oxo-2,3-dihydro-1H-isoindole-4-carboxamide]
DC50 (PARP-1 [2]; probe compound P1): < 0.25 µM | Kd (PARP-1 [2]; probe compound P3): 0.04 µM | DC50 (PARP-2): > 10 µM | DC50 (PARP-3): > 10 µM

CC1c2cccc(C(N)=O)c2C(=O)N1C1CCN(C2CCC2)CC1 (stereo not drawn) [Compound 18, 2-(1-Cyclobutylpiperidin-4-yl)-1-methyl-3-oxo-2,3-dihydro-1H-isoindole-4-carboxamide]
DC50 (PARP-1 [2]; probe compound P1): < 0.25 µM | DC50 (PARP-2): 1.82 µM | DC50 (PARP-3): > 10 µM | C-max (oral) [3]: 3.9 µM | IC50 [5]: 2.7 µM | Vd (in vivo): 3.84 L/kg | clearance (in vivo): 47 mL/min/kg | AUC(0-t) (in vivo): 7.28 µM·h | half-life (in vivo): 1.8 h | Kd (PARP-1 [6]; probe compound P3): < 0.01 µM

CC1c2cccc(C(N)=O)c2C(=O)N1C1CCN(Cc2ccc[nH]2)CC1 (stereo not drawn) [Compound 19, 1-Methyl-3-oxo-2-[1-(1H-pyrrol-2-ylmethyl)piperidin-4-yl]-2,3-dihydro-1H-isoindole-4-carboxamide]
DC50 (PARP-1 [2]; probe compound P1): < 0.25 µM | Kd (PARP-1 [2]; probe compound P3): 0.02 µM | DC50 (PARP-2): > 10 µM | DC50 (PARP-3): 3.04 µM | C-max (oral) [3]: 2.85 µM | IC50 [5]: 2.5 µM | Vd (in vivo): 3.9 L/kg | clearance (in vivo): 88 mL/min/kg | AUC(0-t) (in vivo): 4.28 µM·h | half-life (in vivo): 0.8 h

CC1c2cccc(C(N)=O)c2C(=O)N1C1CCN(Cc2cccs2)CC1 (stereo not drawn) [Compound 20, 1-Methyl-3-oxo-2-[1-(thiophen-2-ylmethyl)piperidin-4-yl]-2,3-dihydro-1H-isoindole-4-carboxamide]
DC50 (PARP-1 [2]; probe compound P1): < 0.25 µM | DC50 (PARP-2): > 10 µM | DC50 (PARP-3): 3.86 µM | Kd (PARP-1 [6]; probe compound P3): < 0.01 µM

CC1c2cccc(C(N)=O)c2C(=O)N1C1CCN(CC2CCCCC2)CC1 (stereo not drawn) [Compound 21, 2-[1-(Cyclohexylmethyl)piperidin-4-yl]-1-methyl-3-oxo-2,3-dihydro-1H-isoindole-4-carboxamide]
Max TGI (%) ([1]; 100 mg/kg, schedule 1-20 daily): 23% | DC50 (PARP-2): > 10 µM | DC50 (PARP-3): > 10 µM | C-max (oral) [3]: 1.2 µM | Toxicity (body weight reduction, mice affected out of 7 treated) ([4]; 100 mg/kg): 0/7 | IC50 [5]: 1.2 µM | Vd (in vivo): 4.9 L/kg | clearance (in vivo): 23 mL/min/kg | AUC(0-t) (in vivo): 7.39 µM·h | half-life (in vivo): 6.6 h

CC1c2cccc(C(N)=O)c2C(=O)N1C1CCN(CC2CC=CCC2)CC1 (stereo not drawn) [Compound 22, 2-[1-(Cyclohex-3-en-1-ylmethyl)piperidin-4-yl]-1-methyl-3-oxo-2,3-dihydro-1H-isoindole-4-carboxamide]
DC50 (PARP-1 [2]; probe compound P1): < 0.25 µM | Kd (PARP-1 [2]; probe compound P3): 0.04 µM | DC50 (PARP-2): > 10 µM | DC50 (PARP-3): > 10 µM

CC1c2cccc(C(N)=O)c2C(=O)N1C1CCN(Cc2ncc[nH]2)CC1 (stereo not drawn) [Compound 26, 2-[1-(1H-Imidazol-2-ylmethyl)piperidin-4-yl]-1-methyl-3-oxo-2,3-dihydro-1H-isoindole-4-carboxamide]
DC50 (PARP-1 [2]; probe compound P1): < 0.25 µM | Kd (PARP-1 [2]; probe compound P3): 0.07 µM | DC50 (PARP-2): 6.88 µM | DC50 (PARP-3): 2.83 µM

CC1c2cccc(C(N)=O)c2C(=O)N1c1ccc(N2CCOCC2)cc1 (stereo not drawn) [Compound 35, 1-Methyl-2-[4-(morpholin-4-yl)phenyl]-3-oxo-2,3-dihydro-1H-isoindole-4-carboxamide]
DC50 (PARP-1 [2]; probe compound P1): < 0.25 µM | Kd (PARP-1 [2]; probe compound P3): 0.04 µM | DC50 (PARP-2): > 10 µM | DC50 (PARP-3): > 10 µM | IC50 [5]: 4.9 µM

CC1c2cccc(C(N)=O)c2C(=O)N1c1ccc(N2CCCCC2)cc1 (stereo not drawn) [Compound 36, 1-Methyl-3-oxo-2-[4-(piperidin-1-yl)phenyl]-2,3-dihydro-1H-isoindole-4-carboxamide]
DC50 (PARP-1 [2]; probe compound P1): < 0.25 µM | Kd (PARP-1 [2]; probe compound P3): 0.08 µM | DC50 (PARP-2): > 10 µM | DC50 (PARP-3): > 10 µM | IC50 [5]: 9 µM

CC1c2cccc(C(N)=O)c2C(=O)N1c1ccc(CN2CCCCC2)cc1 (stereo not drawn) [Compound 38, 1-Methyl-3-oxo-2-[4-(piperidin-1-ylmethyl)phenyl]-2,3-dihydro-1H-isoindole-4-carboxamide]
DC50 (PARP-1 [2]; probe compound P1): 1.11 µM | DC50 (PARP-2): > 10 µM | DC50 (PARP-3): > 10 µM | IC50 [5]: 5.3 µM

CC1c2cc(F)cc(C(N)=O)c2C(=O)N1C1CCN(C2CCC(F)(F)CC2)CC1 (stereo not drawn) [Compound 126, 2-[1-(4,4-Difluorocyclohexyl)piperidin-4-yl]-6-fluoro-1-methyl-3-oxo-2,3-dihydro-1H-isoindole-4-carboxamide]
DC50 (PARP-1 [2]; probe compound P1): < 0.25 µM | DC50 (PARP-2): > 10 µM | DC50 (PARP-3): > 10 µM | IC50 [5]: 0.27 µM

CC1c2cc(F)cc(C(N)=O)c2C(=O)N1C1CCN(C2CCCCC2)CC1 (stereo not drawn) [Compound 127, 2-(1-Cyclohexylpiperidin-4-yl)-6-fluoro-1-methyl-3-oxo-2,3-dihydro-1H-isoindole-4-carboxamide]
DC50 (PARP-1 [2]; probe compound P1): 0.41 µM | Kd (PARP-1 [2]; probe compound P3): 0.06 µM | DC50 (PARP-2): > 10 µM | DC50 (PARP-3): > 10 µM | IC50 [5]: 0.64 µM

CC1(C)c2cc(F)cc(C(N)=O)c2C(=O)N1C1CCN(C2CCCCC2)CC1 [Compound 128, 2-(1-Cyclohexylpiperidin-4-yl)-6-fluoro-1,1-dimethyl-3-oxo-2,3-dihydro-1H-isoindole-4-carboxamide]
DC50 (PARP-1 [2]; probe compound P1): 5.66 µM | Kd (PARP-1 [2]; probe compound P3): 0.87 µM | DC50 (PARP-2): > 10 µM | DC50 (PARP-3): > 10 µM | IC50 [5]: 4 µM
